# Where two headings read alike, the source gives them in different places.
# Experiments:
# MOLM-6 = experiment: MTS viability assay, 72 h; conditions: for CC50: read-out: LC50
# Method: (§4) 15-25 ×10^3 of MV-4-11, MOLM-13, MOLM-14, MOLM-16, KG-1, Eol-1, SKM-1, PL-21, GDM-1, SKNO-1, RS4;11, Kasumi-3 and Kasumi-6 cells were seeded in 150 μL of culture medium onto individual wells in a 96 well plates, in triplicates. On the same day, 50 μL of medium containing tested inhibitor was added to the wells. Each compound was tested at 8 concentrations, in triplicates. As a negative control, the medium containing 0.1% DMSO was used. […] Staurosporine was used at 10 μM as a positive control. One the day of drug addition, basal signal from untreated cells was measured from in triplicate to determine time zero (T0). […] GI50 and LC50 values were extrapolated from a variable (four-parameter) dose-response curve fitted in GraphPad Prism.
# KASUMI-6 = experiment: MTS viability assay, 72 h
# Method: as §4
# RS4;11 = experiment: MTS viability assay, 72 h; conditions: for CC50: read-out: LC50
# Method: as §4
# SKM-1 = experiment: MTS viability assay, 72 h; conditions: SKM-1, 72 h; for CC50: read-out: LC50
# Method: (§5) On the same day, 50 μL of medium containing tested inhibitor was added to the wells. Each compound was tested at 8 concentrations, in triplicates. As a negative control, the medium containing 0.1% DMSO was used. […] Staurosporine was used at 10 μM as a positive control. One the day of drug addition, basal signal from untreated cells was measured from in triplicate to determine time zero (T0). […] GI50 and LC50 values were extrapolated from a variable (four-parameter) dose-response curve fitted in GraphPad Prism.
# EOL-1 = experiment: MTS viability assay, 72 h
# Method: as §4
# GDM-1 = experiment: MTS viability assay, 72 h; conditions: GDM-1, 72 h
# Method: as §4
# KG-1 = experiment: MTS viability assay, 72 h; conditions: KG-1, 72 h; for CC50: read-out: LC50
# Method: as §4
# PL-21 = experiment: MTS viability assay, 72 h; conditions: PL-21, 72 h
# Method: as §4
# SIG-M5 = experiment: MTS viability assay, 72 h; conditions: SIG-M5, 72 h; for CC50: read-out: LC50
# Method: as §5
# OCI-AML-2 = experiment: MTS viability assay, 72 h
# Method: as §5
# MOLM-13 = experiment: MTS viability assay, 72 h; conditions: MOLM-13, 72 h; for CC50: read-out: LC50
# Method: as §4
# MOLM-16 = experiment: MTS viability assay, 72 h
# Method: as §5
# KASUMI-3 = experiment: MTS viability assay, 72 h; conditions: for CC50: read-out: LC50
# Method: as §4
# OCI-AML-3 = experiment: MTS viability assay, 72 h; conditions: OCI-AML-3, 72 h
# Method: as §4
# MV-4-11 [1] = experiment: MTS viability assay, 72 h
# Method: as §5
# MOLM-14 = experiment: MTS viability assay, 72 h; conditions: Homo sapiens, MOLM-14, 72 h
# Method: as §4
# SKNO-1 = experiment: MTS viability assay, 72 h; conditions: SKNO-1, 72 h
# Method: as §4
# [2] = system: MOLM-14 cells transduced with FLT3 TKD point mutations (D835Y, D835V and F691L); experiment: MTS viability of MOLM-14 cells with FLT3 alleles; type: cell-based; conditions: 72 h
# MOLM-13 xenografts = experiment: MOLM-13 subcutaneous xenograft; type: in vivo; conditions: MOLM-13, SCID mice; AC220 10 mg/kg QD, other doses not given
# Excerpt: (§1) All animals were handled in strict accordance with good animal practice as defined by the relevant national and local animal welfare bodies. SCID and SCID/beige C.B-17 mice were provided by Harlan Laboratories or Charles River Laboratories, and were maintained in pathogen free conditions. For the xenograft experiments, age-matched (9-11 weeks old) females were used. 5×10^6 of MV-4-11 or MOLM-16 cells were suspended in a mixture (1:1, v:v) of PBS with Matrigel (BD Biosciences,) and injected subcutaneously (sc), in a total volume of 100 μL, above the groin on the right hind limb. For MOLM-13 and KG-1 cells, a mixture (3:1, v:v) of PBS and Matrigel HC (BD Bioscience,) was used to inject 5 × 10^6 of cell per mouse subcutaneously (sc), in a total volume of 100 μL. When tumors reached 100-130 mm^3, mice were randomized into uniform groups (6-9 mice per group) and subsequently administered the compound. […] At the end of the experiment, mice were anesthetized with isofluran and blood samples for total cell counts and biochemistry were obtained by retro-orbital bleeding. […] 5×10^6 cells suspended in a mixture (3:1, v:v) of PBS and Matrigel were injected as described above. […] Tumor volume was monitored every second day and calculated using the formula: TV = (a^2×b)/2, where “a” is the short axis in millimeters, and “b” is the long axis in millimeters. Body weight was assessed every day.
# MV-4-11 [3] = experiment: Drug interactions (combination index), MTS; type: cell-based; conditions: MV-4-11
# Method: and AC220 in AML cell lines was assessed using an MTS assay. Cells viability was measured after 72 h incubation with three-fold serial dilutions of compounds, starting at 10 µM concentration. Obtained data were presented as percentage of viable cells compared with control (untreated) cells viability. Error bars indicate SD.
# 11 cells. Combination index (CI) are shown on the Y axis and compound concentrations are shown on X and Z axes. Values […] and below 0.7- a synergy between tested compounds. Values above 1 indicate an antagonistic effect.
# (1 picture or pasted object on this page, not shown here)
# [4] = system: MV-4-11 (FLT3-ITD+) cells; experiment: Western blot of FLT3/PIM downstream signaling; type: cell-based; conditions: MV-4-11, 4 hours
# Method: (§2) Thereafter, we assessed the activities of FLT3-ITD – induced key pro-survival signaling pathways; STAT5, RAF/MEK/ERK and PI3K/AKT (Figure 3). […] Since the expression of a major anti-apoptotic BCL2 family member, MCL1, is regulated by translation, and PIM kinases regulate protein synthesis through 4EBP1, we also assessed the abundance of MCL1.
# (§3) Cells were collected, washed twice with cold PBS, and lysed in RIPA buffer and kept on ice for 10 min. Tumor specimens from xenograft studies were homogenized in RIPA buffer using OMNI TH Tissue Homogenizer and kept on ice for 30 min. After incubation, cell and tumor lysates were centrifuged at 13,000×g at 4°C for 10 min and the supernatants were stored at −80°C until use. Protein concentration was measured using the Bradford method. For SDS-PAGE, 50 μg of protein in the Laemmli sample buffer was loaded onto 10% polyacrylamide gels and electrophoresed. Thereafter, proteins were transferred onto polyvinylidene fluoride (PVDF) membranes (Millipore). After blocking with 5% non-fat dry milk/TBS-T or 2% BSA/TBS-T, membranes were incubated with specific primary antibodies (listed in Supplementary Table 2) at 4 °C overnight. After extensive washing in PBS-T, membranes were incubated for 60 min with appropriate secondary peroxidase-conjugated IgG. The immunoreactive proteins were detected using an enhanced chemiluminescence (ECL) substrate (GE Healthcare) and visualized with Hyperfilm-ECL (GE Healthcare Biosciences).
# MOLM-16 (FLT3-WT) cells = experiment: Western blot of FLT3/PIM downstream signaling; type: cell-based; conditions: MOLM-16, 4 hours
# Method: as §2, §3
# KG-1 (FLT3-WT) tumor = experiment: KG-1 subcutaneous xenograft; type: in vivo; conditions: KG-1, SCID mice; doses not given
# Excerpt: as §1
structure (smiles),measurement,setting,value
CC(C)(C)c1cc(NC(=O)Nc2ccc(-c3cn4c(n3)sc3cc(OCCN5CCOCC5)ccc34)cc2)no1 [AC220],GI50,MOLM-6; 72 h,681 nM
same,CC50,MOLM-6; 72 h,> 10000 nM
same,GI50,KASUMI-6; 72 h,< 5 nM
same,GI50,"RS4;11; Homo sapiens, RS4-11, 72 h",132 nM
same,CC50,"RS4;11; Homo sapiens, RS4-11, 72 h",6960 nM
same,GI50,SKM-1; Homo sapiens,1130 nM
same,CC50,SKM-1; Homo sapiens,7790 nM
same,GI50,"EOL-1; Homo sapiens, EOL1, 72 h",< 5 nM
same,GI50,GDM-1; Homo sapiens,33 nM
same,GI50,KG-1; Homo sapiens,210 nM
same,CC50,KG-1; Homo sapiens,> 10000 nM
same,GI50,PL-21,412 nM
same,GI50,SIG-M5; Homo sapiens,558 nM
same,CC50,SIG-M5; Homo sapiens,3090 nM
same,GI50,"OCI-AML-2; Homo sapiens, OCI-AML2, 72 h",499 nM
same,CC50,"OCI-AML-2; Homo sapiens, OCI-AML2, 72 h, read-out: LC50",1240 nM
same,GI50,MOLM-13; Homo sapiens,< 5 nM
same,CC50,MOLM-13; Homo sapiens,42 nM
same,GI50,"MOLM-16; MOLM16, 72 h",688 nM
same,CC50,"MOLM-16; MOLM16, 72 h, read-out: LC50",8230 nM
same,GI50,"KASUMI-3; Kasumi-3, 72 h",< 5 nM
same,CC50,"KASUMI-3; Kasumi-3, 72 h",< 5 nM
same,GI50,OCI-AML-3; Homo sapiens,1180 nM
same,CC50,"OCI-AML-3; Homo sapiens, read-out: LC50",> 10000 nM
same,GI50,"MV-4-11 [1]; Homo sapiens, MV4-11, 72 h",< 5 nM
same,CC50,"MV-4-11 [1]; Homo sapiens, MV4-11, 72 h, read-out: LC50",< 5 nM
same,GI50,MOLM-14,< 5 nM
same,CC50,MOLM-14; read-out: LC50,196 nM
same,GI50,SKNO-1,6 nM
N[C@@H]1CCCN(c2c(/C=C3\SC(=O)NC3=O)cccc2-c2ccccc2)C1 [AZD1208],GI50,"MOLM-6; MOLM-6, 72 h, dilutions starting at 10 µM",973 nM
same,CC50,"MOLM-6; MOLM-6, 72 h, 50% death relative to T0",> 10000 nM
same,viability of MOLM-14 cells with FLT3-TKD mutants versus FLT3-ITD or parental cells,[2],only marginally affected the viability
same,GI50,"KASUMI-6; KASUMI-6, 72 h, dilutions starting at 10 µM",19 nM
same,GI50,"RS4;11; RS4;11, 72 h, dilutions starting at 10 µM",4220 nM
same,CC50,"RS4;11; RS4;11, 72 h, 50% death relative to T0",> 10000 nM
same,GI50,SKM-1; dilutions starting at 10 µM,> 10000 nM
same,CC50,SKM-1; 50% death relative to T0,> 10000 nM
same,GI50,"EOL-1; EOL-1, 72 h, dilutions starting at 10 µM",89 nM
same,GI50,GDM-1; dilutions starting at 10 µM,506 nM
same,GI50,KG-1; dilutions starting at 10 µM,20 nM
same,CC50,KG-1; 50% death relative to T0,> 10000 nM
same,GI50,PL-21; dilutions starting at 10 µM,> 10000 nM
same,TGI,MOLM-13 xenografts,19.5%
same,combination of AZD1208 and AC220,MV-4-11 [3],synergistic effect
same,GI50,SIG-M5; dilutions starting at 10 µM,> 10000 nM
same,CC50,SIG-M5; 50% death relative to T0,> 10000 nM
same,GI50,"OCI-AML-2; OCI-AML-2, 72 h, dilutions starting at 10 µM",333 nM
same,GI50,MOLM-13; dilutions starting at 10 µM,306 nM
same,CC50,MOLM-13; 50% death relative to T0,> 10000 nM
same,GI50,"MOLM-16; MOLM-16, 72 h, dilutions starting at 10 µM",16 nM
same,MCL1 abundance,[4],did not alter
same,STAT5 signaling,[4],did not change
same,S6 (S235/236) phosphorylation,MOLM-16 (FLT3-WT) cells,profound inhibition
same,GI50,"KASUMI-3; KASUMI-3, 72 h, dilutions starting at 10 µM",57 nM
same,CC50,"KASUMI-3; KASUMI-3, 72 h, 50% death relative to T0",4630 nM
same,GI50,OCI-AML-3; dilutions starting at 10 µM,> 10000 nM
same,GI50,"MV-4-11 [1]; MV-4-11, 72 h, dilutions starting at 10 µM",1460 nM
same,TGI,KG-1 (FLT3-WT) tumor,59.9%
same,GI50,SKNO-1; dilutions starting at 10 µM,5 nM

# — article PMC5908295 (Oncotarget, 2018)
